Four compounds from ChEMBL document CHEMBL1201862, “PubChem BioAssay data set” (2004) can be followed below.

Each structure is given as a SMILES string.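 1) Cells in 96-well plates. 2) Compound, 48 h, 5 concentrations. 3) Linear interpolation between surrounding doses. 4) Unreached endpoint = highest concentration. Abbreviation: GI50, concentration required for 50% inhibition of growth.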 The source made the active and inactive calls. No stated cut-off is given here; in the data, active = GI50 up to about 1.1 µM and inactive = higher.

Assay in all cases: NCI anticancer screen, dose series, 48 h
The test system of assay [1] is NCI-H226.
The test system of assay [2] is PC-3.
Assay [3] relates to SK-MEL-2.
Assay [4] concerns SF-268.
Assay [5] relates to NCI-H522.
The subject of assay [6] is A498.
Assay [7] concerns DU-145.
The test system of assay [8] is 786-0.
In assay [9] the test system is MDA-MB-435.
Assay [10] deals with OVCAR-3.
For assay [11], the system named is OVCAR-8.
The test system of assay [12] is Hs-578T.
The subject of assay [13] is K562.
For assay [14], the system named is CAKI-1.
The subject of assay [15] is HCT-15.
In assay [16] the test system is SF-539.
In assay [17] the test system is MOLT-4.
Assay [18] relates to HCC 2998.
Assay [19] concerns Malme-3M.
In assay [20] the test system is TK-10.

For `COc1oc(C(=O)NC2CCCCC2)c(-c2ccc(Cl)cc2)c1S(=O)(=O)c1ccccc1`, the GI50 in assay [1] is 52.2 µM (inactive); in assay [2] it was 10.7 µM (inactive); in [3] it was 13.4 µM (inactive); in assay [4], 3.46 µM (inactive); in [5], 1.34 µM (inactive); in assay [6], 2.15 µM (inactive). Moreover, the GI50 was 18.3 µM (inactive) in assay [7]; 1.99 µM (inactive) in assay [8]; 9.86 µM (inactive) in assay [9]; 1.89 µM (inactive) in assay [10]; 6.4 µM (inactive) in assay [11]; 16.2 µM (inactive) in assay [12]. Further, the GI50 was 12.3 µM (inactive) in [13]; 3.37 µM (inactive) in [14]; 44.9 µM in assay [15]; 6.58 µM (inactive) in assay [16]; 6.79 µM (inactive) in assay [17]; 19 µM (inactive) in assay [18]. The GI50 in assay [19] was 11.7 µM (inactive); in assay [20], > 53.1 µM (inactive).

`Nc1ncnc2c1ncc(=O)n2C1CC(O)C(CO)O1` (stereo not given): the GI50 in assay [1], in assay [2], in assay [3], in assay [4], in assay [5] and in assay [6] was > 100 µM (inactive) each time. Besides, the GI50 in [7], in assay [8], in assay [9], in [10], in assay [11] and in assay [12] was > 100 µM (inactive) throughout. The GI50 in [13] is > 100 µM (inactive); in assay [14] it was > 100 µM (inactive); in assay [15] it was more than 100 µM; in [16], > 100 µM (inactive); in [17], > 100 µM (inactive); in assay [18], > 100 µM (inactive). For the same compound, the GI50 in assay [19] and in assay [20] was > 100 µM (inactive) in each case.

For the compound `CC(=O)OC1COC(n2c(-c3ccc(Cl)cc3)cc(-c3ccccc3)c(C#N)c2=S)C(OC(C)=O)C1OC(C)=O` (stereo not given), the GI50 in assay [1] was 16.3 µM (inactive); in [2] it was 14.5 µM (inactive); in assay [3], 12 µM (inactive); in assay [4] it was 9.44 µM (inactive); in [5] it was 40.5 µM (inactive); in assay [6], 17.4 µM (inactive). The GI50 in assay [7] was 13.9 µM (inactive); in [8], 12.5 µM (inactive); in assay [9], 7.19 µM (inactive); in [10] it was 6.38 µM (inactive); in assay [11], 5.06 µM (inactive); in assay [12], 0.552 µM (active). Besides, the GI50 in [13] is 12.2 µM (inactive); in assay [14], 19.7 µM (inactive); in [15] it was 23.4 µM; in assay [16], 4.42 µM (inactive); in [17], 50.1 µM (inactive); in [18], 31.6 µM (inactive). For the same compound, the GI50 in [19] is 49.9 µM (inactive); in [20], 31.6 µM (inactive).

In the case of `COc1ccc(CC2c3cc(OC)c(OC)cc3CC[N+]2(C)C)cc1OC` (stereo not given), the GI50 in [1], in assay [2], in [3], in assay [4], in assay [5] and in assay [6] was > 100 µM (inactive) throughout. The GI50 in assay [7], in [8], in [9], in assay [10], in [11] and in assay [12] was > 100 µM (inactive) in each case. Also, the GI50 in [13] is > 100 µM (inactive); in assay [14] it was > 100 µM (inactive); in assay [15], more than 100 µM; in assay [16] it was > 100 µM (inactive); in assay [17] it was > 100 µM (inactive); in assay [18] it was > 100 µM (inactive). Besides, the GI50 in [19] and in [20] was > 100 µM (inactive) each time.
